{"source": "patent US20220409573A1", "about": "“Hippocampus Regeneration And Memory Recovery” (INNOBIOSCIENCE, LLC, priority 2021, published 2022)", "key": {"[1]": {"test_system": "Aβ oligomers in the hippocampus of APPswe/PS-1 mice", "assay": "Slot blot of Aβ oligomers with A11 antibody", "format": "in vivo"}, "[2]": {"test_system": "Wnt target genes", "assay": "PCR array of Wnt target genes in hippocampal neurons", "format": "cell-based, rat", "experimental": "Primary culture of rat hippocampal neurons. […] PCR-ARRAY. RNA from hippocampal neurons was extracted using Trizol. Quantification and purity of RNA preparations were checked by absorbance using Nanodrop ND-2000. Only preparations with a 260/280 nm ratio≥1.8, a 260/230 nm ratio ≥1,7 and no sign of RNA degradations, verified by agarose gel electrophoresis with Gel Red TM were used. Genomic DNA was degraded. Using RT2First-Strand cDNA Synthesis kit (SuperArray), 1 μg total RNA was reverse transcribed and then real-time PCR was performed by adding cDNA directly to PCR Master Mix, containing SYBR Green and ROX. The mixtures were then aliquoted into a 96-well PCR array plates, which profiles the expression of 84 Wnt target genes from rat. The PCR was run on ABI StepOnePlus, with 1 cycle of 10 min at 95° C. followed by 40 cycles of 15 s at 95° C. and 1 min at 60° C.\nTreatment of neuronal cultures. Primary hippocampal cultures of neurons 14 DIV were washed twice in neurobasal medium and maintained for 1 hour."}, "[3]": {"test_system": "tau phosphorylation in the hippocampus of APPswe/PS-1 mice", "assay": "Tau phosphorylation immunoblot (PHF-1, AT8) in treated APPswe/PS-1 mice", "format": "in vivo", "details": "hippocampus of 6 month-old APPswe/PS-1 mice, vs untreated"}, "[4]": {"details": "9 h treatment, of the 86 genes analyzed"}}, "data": [{"compound": "C=C1CC[C@@H]2C(C)(CO)[C@H](O)CC[C@@]2(C)C1C/C=C1/C(=O)OC[C@H]1O", "note": "(stereo in doubt) [ANDRO, 3-(2-(Decahydro-6-hydroxy-5-(hydroxymethyl)-5,8a-dimethyl-2-methylenenaphthyl)ethylidene)dihydro-4-hydroxyfuran-2(3H)-one]", "values": [{"measurement": "level of Aβ oligomers (A11 slot-blot)", "setting": "[1]; 7 month-old APPswe/PS-1 mice", "result": "did not show significant changes"}, {"measurement": "levels of Aβ-oligomers (A11 slot blot)", "setting": "[1]; FIG. 3G (old APPswe/PS-1 mice per legend)", "result": "did not show significant changes"}, {"measurement": "Cdh-1 gene expression", "setting": "[2]", "result": "differential expression"}, {"measurement": "number of Wnt target genes specifically modulated", "setting": "[2]; [4]", "result": 3, "unit": "genes"}, {"measurement": "number of changed Wnt target genes shared by ANDRO and 6-BIO", "setting": "[2]; [4]", "result": 4, "unit": "genes"}, {"measurement": "Ets2 gene expression", "setting": "[2]; after Bonferroni correction", "result": "down-regulation of Ets2 gene"}, {"measurement": "PHF-1- and AT8-positive tau levels", "setting": "[3]", "result": "reduction in PHF-1- and AT8-positive tau levels"}]}]}
